The source made the active and inactive calls. The calls are words filed in the database; no cut-off is given here.
Key:
Type in all cases: functional, cell-based
[1] = tested on: PC-12; assay: Induction of neurite outgrowth in rat PC12 cells assessed as morphological changes after 48 hrs by phase-contrast microscopy
[2] = tested on: PC-12; assay: Potentiation of NGF-induced neurite outgrowth in rat PC12 cells assessed as morphological changes after 48 hrs by phase-contrast microscopy
[3] = tested on: PC-12; assay: Potentiation of NGF-induced neurite outgrowth in rat PC12 cells assessed increase in neurite length extending from cell bodies after 48 hrs by phase-contrast microscopy
[4] = tested on: PC-12; assay: Potentiation of NGF-induced neurite outgrowth in rat PC12 cells assessed as morphological changes at 0.1 to 40 uM after 48 hrs by phase-contrast microscopy
[5] = tested on: PC-12; assay: Potentiation of NGF-induced neurite outgrowth in rat PC12 cells assessed increase in neurite length extending from cell bodies at 0.1 to 40 uM after 48 hrs by phase-contrast microscopy

SMILES | Activity [1] | Activity [2] | Activity [3] | Activity [4] | Activity [5]
COC(C)(C)/C=C/C[C@@]1(C)CC=C2CO[C@H]3C[C@@](C)(OC)O[C@@]23[C@@H]1/C=C/OC(=O)C=C(C)C | inactive |  |  |  | 
COC(C)(C)/C=C/C[C@@]1(C)CC=C2CO[C@H]3C[C@@](C)(OC)O[C@@]23[C@@H]1/C=C\OC(=O)C=C(C)C | inactive | Dose-dependent effect | Dose-dependent effect |  | 
CO[C@]1(C)C[C@@H]2OCC3=CC[C@](C)(C/C=C/C(C)C)[C@@H](/C=C/OC(=O)C=C(C)C)[C@]32O1 | inactive | Dose-dependent effect | Dose-dependent effect |  | 
COC(C)(C)/C=C/C[C@@]1(C)CC=C(CO)C(=O)[C@H](CC(C)=O)[C@@H]1/C=C/OC(=O)C=C(C)C | inactive |  | inactive | inactive | inactive
CC(=O)C[C@@H]1C[C@@]2(C)CC=C3CO[C@@H](CC(C)=O)[C@]3(O1)[C@@H]2/C=C/OC(=O)C=C(C)C | inactive |  |  |  | 
COC(C)(C)/C=C/C[C@@]1(C)CC=C2CO[C@H]3C[C@](C)(OC)O[C@@]23[C@@H]1/C=C/OC(=O)C=C(C)C | inactive | Dose-dependent effect | Dose-dependent effect |  | 
CO[C@@]1(C)C[C@@H]2OCC3=CC[C@](C)(C/C=C/C(C)C)[C@@H](/C=C/OC(=O)C=C(C)C)[C@]32O1 | inactive | Dose-dependent effect | Dose-dependent effect |  | 
COC(C)(C)/C=C/C[C@@]1(C)CC=C(CO)C(=O)[C@@H](CC(C)=O)[C@@H]1/C=C/OC(=O)C=C(C)C | inactive |  |  | inactive | inactive

From ChEMBL document CHEMBL1156981, “NGF-potentiating vibsane-type diterpenoids from Viburnum sieboldii” (Bioorg Med Chem Lett, 2010)
